Measurements: patent US20160319324A1, “MODULATORS OF GLYCEROPHOSPHODIESTER PHOSPHODIESTERASE PROTEINS” (THE JOHNS HOPKINS UNIVERSITY, priority 2013, published 2016)

Key:
GDE3 = target: T1, GDE3 (Homo sapiens, UniProt Q9HCC8); assay: validation and site of action of candidate drugs from fresh powder by western blot analysis and surface biotinylation assay; assay type: cell-based; settings: for expression and localization of CNTFR and GDE3 / release of CNTFR into the medium: 10 μM in 0.1% DMSO, 24 hours treatment; for expression and localization of CNTFR and GDE3: western blot banding pattern and surface biotinylation; for release of CNTFR into the medium: HEK293T cells transfected with Luc-CNTFR and GDE3
T1 construct: expressed in transfected cells; host or cells: HEK293T
T1 sequence (Q9HCC8 1-539): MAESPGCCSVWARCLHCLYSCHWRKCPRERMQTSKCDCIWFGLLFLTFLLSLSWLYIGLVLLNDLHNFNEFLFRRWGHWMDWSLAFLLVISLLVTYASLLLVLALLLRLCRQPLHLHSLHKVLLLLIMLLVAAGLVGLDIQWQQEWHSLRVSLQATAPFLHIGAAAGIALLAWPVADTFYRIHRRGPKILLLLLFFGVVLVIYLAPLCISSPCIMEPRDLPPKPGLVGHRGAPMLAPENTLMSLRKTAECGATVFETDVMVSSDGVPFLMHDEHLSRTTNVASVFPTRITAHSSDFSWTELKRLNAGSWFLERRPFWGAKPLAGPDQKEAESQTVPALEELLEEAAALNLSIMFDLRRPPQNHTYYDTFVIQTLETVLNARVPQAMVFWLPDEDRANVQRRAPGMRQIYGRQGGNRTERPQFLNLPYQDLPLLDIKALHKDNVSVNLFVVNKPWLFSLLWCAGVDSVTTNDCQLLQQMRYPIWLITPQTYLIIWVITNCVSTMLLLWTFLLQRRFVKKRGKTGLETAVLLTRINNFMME
Method: FIG. 10. Validation and identification of the site of action of candidate drugs. Drugs hit by a high-throughput screening were prepared from the fresh powders and their activity was tested by established western blot analysis. […] Concentration of drugs=10 μM.
HEK293T cells were cultured in DMEM with 10% FBS on polyethyleneimine (PEI)-coated 12 well plates and transfected using Fugene6 agent (Roche). 24 hours after transfection, medium was changed to serum free DMEM and cells were incubated for an additional 24 hours. Medium and cell lysates were collected separately, and secretion and expression of proteins were analyzed by western blot and quantified using ImageJ (NIH). Antibodies used in Western analyses were rabbit-anti Jag1 (1:1000, Santa Cruz); rabbit anti-CRD (1:250, gift from Paul Englund) and mouse anti-myc (1.5 μg/ml for IP, DSHB) and as described.
Surface biotinylation assay was performed as previously described (29). Briefly, thirty hours after transfection of HEK293T cells with RECK/GDE and CreER constructs, cells were cooled on ice, washed twice with ice cold PBS++(1×PBS, 1 mM CaCl2, 0.5 mM MgCl2) and then incubated with PBS++ containing 1 mg/ml Sulfo-NHS-SSBiotin (Pierce) for 30 min at 4° C. Unreacted biotin was quenched by PBS++ containing 100 mM Glycine. Cultures were harvested in RIPA buffer, sonicated, and centrifuged at […] for 20 min at 4° C. The supernatant was rotated with Streptavidin beads (Pierce) for 2 hr at 4° C. Precipitates were washed with RIPA buffer three times and eluted with SDS gel loading buffer.
Currently, specific pharmacological modulators for GPI-AP cleavage have not been identified due to poor characterization of GPI-AP cleaving enzymes and the absence of an in vitro assay system. The robust GPI-AP cleaving activity of 6-TM GDEs has allowed the establishment of a luciferase-based, high throughput drug screening assay (signal to noise ratio=44.6; signal to background ratio=7.0; Z′ score=0.6: an excellent assay category). Measuring the GDE3-dependent release of GPI-anchored luciferase into the medium, the present inventors screened 3,360 compounds of the Johns Hopkins Drug library (JHDL), which contains FDA approved and phase II clinical trial drugs. The present inventors have selected common hits, which reduce or increase the release of luciferase activity into the medium more than 3 standard deviations of DMSO controls from duplicated experiments and identified 163 inhibitors (4.9%) and 138 activators (4.1%). Since the assay targets the whole GPI synthesis pathway as well as GPI cleaving activity, it is crucial to identify the site of action. Candidate drugs could modulate different steps of synthesis and cleavage of GPI-APs and will be categorized as follow: drugs activate or inhibit (i) the GPI biosynthesis machinery, (ii) glycosylation, (iii) surface expression of GPI-AP or GDE3, (iv) GPI cleaving activity of GDE, or (v) GPI cleaving-independent secretion of GPI-AP. Among 163 inhibitors, 23 drugs have been prepared from fresh powder stocks and their sites of action were tested by established western blot analyses and results are as follows: 10 drugs (no effect), 9 drugs (reducing surface expression and/or glycosylation of GPI-APs), and 4 drugs (inhibiting GPI-cleaving activity).
JHDL was used to screen drugs that affect the release of Luc-CNTFR into the medium. Drugs that increase or decrease the release index more than 3 SD of 16 DMSO controls of each plate were selected. Common hits of duplicated independent experiments were further analyzed. Among 3,360 drugs screened, we have identified 163 inhibitors and 138 activators. Among 163 inhibitors, 23 compounds were prepared from a fresh powder and their site of action was analyzed (10 μM in 0.1% DMSO, 24 hours treatment). To test whether drugs affect glycosylation and/or surface expression of CNTFR or GDE3, banding pattern of Western blot analysis and surface biotinylation assay were performed (FIG. 10). […]

[1] = target: Luc-CNTFR (firefly) [luciferase: P08659]; assay: cell-based or functional assay
[2] = Concentration of drugs=10 μM, western blot

Luc-CNTFR (firefly) [luciferase: P08659], sequence (P08659 whole entry): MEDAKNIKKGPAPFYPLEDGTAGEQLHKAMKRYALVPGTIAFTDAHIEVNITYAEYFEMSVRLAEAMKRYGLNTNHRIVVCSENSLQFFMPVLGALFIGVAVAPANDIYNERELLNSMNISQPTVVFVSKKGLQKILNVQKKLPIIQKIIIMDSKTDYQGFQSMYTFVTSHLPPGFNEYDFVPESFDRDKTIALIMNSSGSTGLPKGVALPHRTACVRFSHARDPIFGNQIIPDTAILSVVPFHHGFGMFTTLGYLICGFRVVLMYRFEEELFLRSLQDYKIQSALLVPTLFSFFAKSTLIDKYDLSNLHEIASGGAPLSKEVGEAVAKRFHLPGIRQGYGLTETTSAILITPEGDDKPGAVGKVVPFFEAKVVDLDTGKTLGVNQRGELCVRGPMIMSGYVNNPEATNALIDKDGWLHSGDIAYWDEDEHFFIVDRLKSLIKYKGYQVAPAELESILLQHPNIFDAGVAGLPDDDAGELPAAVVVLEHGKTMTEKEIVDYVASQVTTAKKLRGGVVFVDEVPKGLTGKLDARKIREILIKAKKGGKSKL

| Compound | expression and localization of CNTFR and GDE3 (GDE3) | release of CNTFR into the medium (GDE3; western blot) | other results |
| --- | --- | --- | --- |
| CN1[C@@H]2CC[C@H]1C[C@@H](OC(c1ccccc1)c1ccccc1)C2 [benzotropine] |  |  | glycosylation pattern of CNTFR (GDE3; [2]): affect glycosylation pattern of CNTFR |
| CC[C@H]1OC(=O)[C@H](C)[C@@H](O[C@H]2C[C@@](C)(OC)[C@@H](O)[C@H](C)O2)[C@H](C)[C@@H](O[C@@H]2O[C@H](C)C[C@H](N(C)C)[C@H]2O)[C@](C)(O)C[C@@H](C)C(=O)[C@H](C)[C@@H](O)[C@]1(C)O [erythromycin] | without affecting expression and localization of CNTFR and GDE3 | inhibitor of the release of CNTFR | lysate level of CNTFR (GDE3; [2]): without affecting the lysate level; release of CNTFR into the medium (GDE3; western blot, listed as Erythromycin): inhibits the release of CNTFR |
| O=C(O)CCC(=O)c1ccc(-c2ccccc2)cc1 [fenbufen] |  | increase the release of CNTFR into the medium |  |
| COc1c(C)c2c(c(O)c1C/C=C(\C)CCC(=O)O)C(=O)OC2 [mycophenolic acid] |  |  | glycosylation pattern of CNTFR (GDE3; [2]): affect glycosylation pattern of CNTFR |
| CCCCCCCCC(=O)NCc1ccc(O)c(OC)c1 [nonivamide] | without affecting expression and localization of CNTFR and GDE3 | inhibitor of the release of CNTFR |  |
| COc1ccc(CN(CCN(C)C)c2ccccn2)cc1 [pyrilamine] |  | increase the release of CNTFR into the medium |  |
| N[C@@H](Cc1cc(I)c(Oc2cc(I)c(O)c(I)c2)c(I)c1)C(=O)O [thyroxine] | without affecting expression and localization of CNTFR and GDE3 | inhibitor of the release of CNTFR |  |
| GDE3 (enzyme) |  |  | release index (luciferase activity in the medium/cell lysate) [1]: 7 fold |
| vitamin B12 | without affecting expression and localization of CNTFR and GDE3 | inhibitor of the release of CNTFR |  |
